Data published in PMC3527451, “A Pilot Randomized, Placebo Controlled, Double Blind Phase I Trial of the Novel SIRT1 Activator SRT2104 in Elderly Volunteers” (PLoS ONE, 2012).

Tested on: elderly male and female volunteers
Experiment: Safety and tolerability, treatment-emergent adverse events in elderly volunteers
Type: in vivo, human
Conditions: for serum creatinine of one subject: 0.5 g/day cohort
Protocol: This was a phase I, single-center, double-blind, randomized, placebo-controlled, parallel-arm study to assess the safety, tolerability, pharmacokinetic and initial pharmacodynamic properties of SRT2104 (Sirtris Pharmaceuticals, Cambridge, MA, USA) administered for the first time to male and female elderly volunteers 60 to 80 years of age. Volunteers were enrolled between 01 Oct 2009 and 5 Feb 2010. Doses of 0.5 and 2.0 g or matching placebo were administered once daily for 28 consecutive days. The selection of the doses investigated in this study was based upon safety and pharmacokinetic data obtained from a previous clinical study involving SRT2104 [19]. Suitability of participants was defined on the basis of a medical history, physical examination, vital signs, electrocardiogram and laboratory measurements. Subjects were required to have normal fasting glucose levels (4.4 to 6.0 mmol/L) at screening and a body mass index of at least 18 kg/m^2 and no greater than 30 kg/m^2. […] Subjects were deemed ineligible if they participated in any clinical trial with an investigative medicinal product within the past three months prior to the first dose in the current study, had been exposed to more than three new chemical entities within 12 months of enrollment, or used other concomitant medications and herbal products in the previous 3 months that in the opinion of the investigator could interfere with the study procedures or compromise subject safety. Additional exclusions included: women of childbearing potential and non-sterile men, unless they agreed to use acceptable method of contraception; history of alcoholism or drug abuse (including a positive pre-study drug/alcohol test at screening); use of tobacco or nicotine products; history of complications when donating blood or known relative inaccessibility of veins for venipuncture; donation of blood within three months of enrolment; history of significant drug or other allergies. Participants were asked to maintain their usual level of physical activity for the duration of the study.
At every visit (including at screening and follow-up), blood and urine samples were collected for clinical laboratory assessments (general blood biochemistry, full blood count, coagulation parameters and urinalysis). On the same days, physical examination, vital signs (resting pulse rate, respiration rate, temperature, and blood pressure readings), pre- and post-dose 12-lead ECG and a review of adverse events (AE) and any medications received were also performed. Safety evaluations were based on the incidence, severity and type of AEs and clinically significant changes from baseline in physical examination findings, vital signs or clinical laboratory results.

[1] = 28 days continuous administration

In the case of `Cc1nc(-c2cccnc2)sc1C(=O)Nc1ccccc1-c1cn2c(CN3CCOCC3)csc2n1` [SRT2104], the safety and tolerability (0.5 and 2.0 g/day for 28 days) is reported as “generally safe and well tolerated”, the “Abdominal distension, number of subjects” value (0.5 g/day (n = 8)) is reported as 1 and the “Abdominal distension, percent of subjects” value (0.5 g/day (n = 8)) is reported as “(13%)”. The “Abdominal pain lower, number of subjects” value (0.5 g/day (n = 8)) was 1, the “Abdominal pain lower, percent of subjects” value (0.5 g/day (n = 8)) was “(13%)” and the “Any adverse event, percent of subjects” value (0.5 g/day (n = 8)) was “(100%)”. The “Application site haematoma, number of subjects” value (0.5 g/day (n = 8)) was 1, the “Application site haematoma, percent of subjects” value (0.5 g/day (n = 8)) was “(13%)” and the “Arthralgia, number of subjects” value (0.5 g/day (n = 8)) was 1. For the same compound, the “Arthralgia, percent of subjects” value (0.5 g/day (n = 8)) was “(13%)”, the “Back pain, number of subjects” value (0.5 g/day (n = 8)) was 1 and the “Back pain, percent of subjects” value (0.5 g/day (n = 8)) was “(13%)”. For the same compound, the “Blood creatinine increased, number of subjects” value (0.5 g/day (n = 8)) was 1, the “Blood creatinine increased, percent of subjects” value (0.5 g/day (n = 8)) was “(13%)” and the “Constipation, number of subjects” value (0.5 g/day (n = 8)) was 0. For the same compound, the “Cough, number of subjects” value (0.5 g/day (n = 8)) was 0, the “Decreased Appetite, number of subjects” value (0.5 g/day (n = 8)) was 1 and the “Decreased Appetite, percent of subjects” value (0.5 g/day (n = 8)) was “(13%)”. For the same compound, the “Diarrhoea, number of subjects” value (0.5 g/day (n = 8)) was 1, the “Diarrhoea, percent of subjects” value (0.5 g/day (n = 8)) was “(13%)” and the “Dizziness, number of subjects” value (0.5 g/day (n = 8)) was 0. For the same compound, the “Dry eye, number of subjects” value (0.5 g/day (n = 8)) was 0, the “Dysphonia, number of subjects” value (0.5 g/day (n = 8)) was 0 and the “Epistaxis, number of subjects” value (0.5 g/day (n = 8)) was 0. The “Erythema, number of subjects” value (0.5 g/day (n = 8)) was 1, the “Erythema, percent of subjects” value (0.5 g/day (n = 8)) was “(13%)” and the “Eye pain, number of subjects” value (0.5 g/day (n = 8)) was 0. For the same compound, the “Fall, number of subjects” value (0.5 g/day (n = 8)) was 0, the “Fatigue, number of subjects” value (0.5 g/day (n = 8)) was 0 and the “Headache, number of subjects” value (0.5 g/day (n = 8)) was 5. For the same compound, the “Headache, percent of subjects” value (0.5 g/day (n = 8)) was “(63%)”, the “Insomnia, number of subjects” value (0.5 g/day (n = 8)) was 1 and the “Insomnia, percent of subjects” value (0.5 g/day (n = 8)) was “(13%)”. The “Joint stiffness, number of subjects” value (0.5 g/day (n = 8)) was 0, the “Lethargy, number of subjects” value (0.5 g/day (n = 8)) was 1 and the “Lethargy, percent of subjects” value (0.5 g/day (n = 8)) was “(13%)”. The “Limb injury, number of subjects” value (0.5 g/day (n = 8)) was 0, the “Mass, number of subjects” value (0.5 g/day (n = 8)) was 0 and the “Migraine, number of subjects” value (0.5 g/day (n = 8)) was 1. For the same compound, the “Migraine, percent of subjects” value (0.5 g/day (n = 8)) was “(13%)”, the “Muscle spasms, number of subjects” value (0.5 g/day (n = 8)) was 0 and the “Muscular weakness, number of subjects” value (0.5 g/day (n = 8)) was 0. The “Nasopharyngitis, number of subjects” value (0.5 g/day (n = 8)) was 1, the “Nasopharyngitis, percent of subjects” value (0.5 g/day (n = 8)) was “(13%)” and the “Nausea, number of subjects” value (0.5 g/day (n = 8)) was 1. The “Nausea, percent of subjects” value (0.5 g/day (n = 8)) was “(13%)”, the “Number of subjects experiencing any adverse event” value (0.5 g/day (n = 8)) was 8 and the “Palpitations, number of subjects” value (0.5 g/day (n = 8)) was 1. The “Palpitations, percent of subjects” value (0.5 g/day (n = 8)) was “(13%)”, the “Procedural pain, number of subjects” value (0.5 g/day (n = 8)) was 1 and the “Procedural pain, percent of subjects” value (0.5 g/day (n = 8)) was “(13%)”. For the same compound, the “Rash, number of subjects” value (0.5 g/day (n = 8)) was 1, the “Rash, percent of subjects” value (0.5 g/day (n = 8)) was “(13%)” and the “Sensation of heaviness, number of subjects” value (0.5 g/day (n = 8)) was 1. The “Sensation of heaviness, percent of subjects” value (0.5 g/day (n = 8)) was “(13%)”, the “Sleep disorder, number of subjects” value (0.5 g/day (n = 8)) was 1 and the “Sleep disorder, percent of subjects” value (0.5 g/day (n = 8)) was “(13%)”. The “Syncope vasovagal, number of subjects” value (0.5 g/day (n = 8)) was 0, the “Tenderness, number of subjects” value (0.5 g/day (n = 8)) was 0 and the “Thermal burn, number of subjects” value (0.5 g/day (n = 8)) was 0. For the same compound, the “Urine output increased, number of subjects” value (0.5 g/day (n = 8)) was 1, the “Urine output increased, percent of subjects” value (0.5 g/day (n = 8)) was “(13%)” and the “Vomiting, number of subjects” value (0.5 g/day (n = 8)) was 1. For the same compound, the “Vomiting, percent of subjects” value (0.5 g/day (n = 8)) was “(13%)”, the “serum creatinine of one subject” value (day 14 (drug stopped)) was 151 µmol/L and the “serum creatinine of one subject” value (day 21 (normalization, drug restarted)) was 126 µmol/L. The “serum creatinine of one subject” value (day 28 (relapse)) was 154 µmol/L, the “serum creatinine of one subject” value (end of study follow up visit) was 116 µmol/L and the “Abdominal distension, number of subjects” value (2.0 g/day (n = 9)) was 0. The “Abdominal pain lower, number of subjects” value (2.0 g/day (n = 9)) was 0, the “Any adverse event, percent of subjects” value (2.0 g/day (n = 9)) was “(100%)” and the “Application site haematoma, number of subjects” value (2.0 g/day (n = 9)) was 1. The “Application site haematoma, percent of subjects” value (2.0 g/day (n = 9)) was “(11%)”, the “Arthralgia, number of subjects” value (2.0 g/day (n = 9)) was 0 and the “Back pain, number of subjects” value (2.0 g/day (n = 9)) was 0. For the same compound, the “Blood creatinine increased, number of subjects” value (2.0 g/day (n = 9)) was 0, the “Constipation, number of subjects” value (2.0 g/day (n = 9)) was 1 and the “Constipation, percent of subjects” value (2.0 g/day (n = 9)) was “(11%)”. For the same compound, the “Cough, number of subjects” value (2.0 g/day (n = 9)) was 1, the “Cough, percent of subjects” value (2.0 g/day (n = 9)) was “(11%)” and the “Decreased Appetite, number of subjects” value (2.0 g/day (n = 9)) was 0. The “Diarrhoea, number of subjects” value (2.0 g/day (n = 9)) was 2, the “Diarrhoea, percent of subjects” value (2.0 g/day (n = 9)) was “(22%)” and the “Dizziness, number of subjects” value (2.0 g/day (n = 9)) was 1. For the same compound, the “Dizziness, percent of subjects” value (2.0 g/day (n = 9)) was “(11%)”, the “Dry eye, number of subjects” value (2.0 g/day (n = 9)) was 0 and the “Dysphonia, number of subjects” value (2.0 g/day (n = 9)) was 1. For the same compound, the “Dysphonia, percent of subjects” value (2.0 g/day (n = 9)) was “(11%)”, the “Epistaxis, number of subjects” value (2.0 g/day (n = 9)) was 0 and the “Erythema, number of subjects” value (2.0 g/day (n = 9)) was 0. For the same compound, the “Eye pain, number of subjects” value (2.0 g/day (n = 9)) was 0, the “Fall, number of subjects” value (2.0 g/day (n = 9)) was 0 and the “Fatigue, number of subjects” value (2.0 g/day (n = 9)) was 0. The “Headache, number of subjects” value (2.0 g/day (n = 9)) was 1, the “Headache, percent of subjects” value (2.0 g/day (n = 9)) was “(11%)” and the “Insomnia, number of subjects” value (2.0 g/day (n = 9)) was 0. The “Joint stiffness, number of subjects” value (2.0 g/day (n = 9)) was 0, the “Lethargy, number of subjects” value (2.0 g/day (n = 9)) was 0 and the “Limb injury, number of subjects” value (2.0 g/day (n = 9)) was 1. The “Limb injury, percent of subjects” value (2.0 g/day (n = 9)) was “(11%)”, the “Mass, number of subjects” value (2.0 g/day (n = 9)) was 0 and the “Migraine, number of subjects” value (2.0 g/day (n = 9)) was 0. For the same compound, the “Muscle spasms, number of subjects” value (2.0 g/day (n = 9)) was 0, the “Muscular weakness, number of subjects” value (2.0 g/day (n = 9)) was 0 and the “Nasopharyngitis, number of subjects” value (2.0 g/day (n = 9)) was 4. For the same compound, the “Nasopharyngitis, percent of subjects” value (2.0 g/day (n = 9)) was “(44%)”, the “Nausea, number of subjects” value (2.0 g/day (n = 9)) was 0 and the “Number of subjects experiencing any adverse event” value (2.0 g/day (n = 9)) was 9. The “Palpitations, number of subjects” value (2.0 g/day (n = 9)) was 0, the “Procedural pain, number of subjects” value (2.0 g/day (n = 9)) was 0 and the “Rash, number of subjects” value (2.0 g/day (n = 9)) was 0. The “Sensation of heaviness, number of subjects” value (2.0 g/day (n = 9)) was 0, the “Sleep disorder, number of subjects” value (2.0 g/day (n = 9)) was 0 and the “Syncope vasovagal, number of subjects” value (2.0 g/day (n = 9)) was 1. The “Syncope vasovagal, percent of subjects” value (2.0 g/day (n = 9)) was “(11%)”, the “Tenderness, number of subjects” value (2.0 g/day (n = 9)) was 0 and the “Thermal burn, number of subjects” value (2.0 g/day (n = 9)) was 1. The “Thermal burn, percent of subjects” value (2.0 g/day (n = 9)) was “(11%)”, the “Urine output increased, number of subjects” value (2.0 g/day (n = 9)) was 0 and the “Vomiting, number of subjects” value (2.0 g/day (n = 9)) was 0. For the same compound, the dose-limiting toxicities [1] was “no dose-limiting toxicities” and the serious adverse events [1] was “no serious adverse events”.
